From patent publication US8343939B2, “Methods of modulating angiogenesis” (Joslin Diabetes Center, Inc., priority 2007, dated 2013)

How the values were obtained:
[1] = tested on: eNOS Ser1179 phosphorylation; assay: Western blot of eNOS phosphorylation in BAEC; format: cell-based, bovine; settings: for eNOS Ser1179 phosphorylation increased during stimulation: insulin 100 nM or VEGF 1 nM
Procedure: (§1) Bovine aortic endothelial cells (BAEC) were isolated by scraping the luminal side of a calf aorta with a cover glass and transferring the harvested material to a 100 mm cell culture dish. The primary culture and subcultures were grown in Dulbecco's modified Eagle medium (DMEM) with 5.5 mM glucose, 10% (v/v) horse serum, 25 mM HEPES, 100 U/ml penicillin, and 100 μg/ml streptomycin in collagen I-coated dishes (BioCoat, BD BioSciences). Purity of the cultures was validated by the presence of typical “cobblestone” morphology during phase-contrast microscopy (16) and by the ability of cells to take up acetylated LDL (DiI AcLDL, Molecular Probes, Eugene, Oreg.). Cultures used for experiments were plated in 6-well plates (9.5 cm^2 wells), except for PKC translocation assays (see below). The cells were serum-starved for 16 hours before stimulation by replacing growth medium with DMEM containing 0.1% (w/v) bovine serum albumin. At the time of stimulation, cultures were typically 3 days old and confluent. GF109203X (GFX) (Calbiochem, San Diego, Calif.), wortmannin (Calbiochem), phorbol-12-myristate-13-acetate (PMA) (Sigma, St. Louis, Mo.), bovine insulin (Sigma), and VEGF-A165 (R & D Systems, Minneapolis, Minn.) were added directly to the culture medium when indicated, using an identical volume of solvent as control.
(§2) Cultures were washed twice with ice-cold PBS and lysed in a buffer containing Tris (20 mM, pH 7.5), Triton X-100 (1% v/v), sodium pyrophosphate (2.5 mM); NaF (10 mM), NaCl (140 mM), EDTA (1 mM), EGTA (1 mM), β-glycerophosphate (1 mM), Na3VO4 (1 mM), leupeptin (1 μg/ml=2 μM), aprotinin (1 μg/ml=[…]), and phenylmethylsulfonylfluoride (1 mM). Protein concentration was measured by the Bradford method and samples reduced in modified Laemmli buffer (Invitrogen) and heated at 70° C. for 10 minutes. Equal sample volume and protein mass and reduced samples were separated on precast minigels (NuPAGE tris-acetate gels, Invitrogen) and electrotransferred to nitrocellulose.
(§3) Primary antibody targets were visualized by incubation with horseradish peroxidase-linked secondary antibodies, enhanced chemiluminescence (Amersham Biosciences (currently GE Healthcare), Piscataway, N.J.), and exposure to X-ray film (Kodak, New Haven, Conn.). The film was scanned and signal intensity of protein bands quantitated with ImageQuant software (version 5.1, Molecular Dynamics/Amersham Biosciences/GE Healthcare, Piscataway, N.J.). The intensity of phospho-specific immunoblot was normalized to the intensity of the unstimulated condition and of the nonphospho-specific protein.
BAEC were stimulated with insulin (100 nM, 5 minutes) or VEGF (1 nM, 5 minutes) after pretreatment with PMA (100 nM, 30 minutes) or vehicle as a control (DMSO, 0.2% (v/v)). Akt and eNOS phosphorylation in the BAEC was examined. In some experiments (FIGS. 1C and 1D), BAEC were also incubated with GFX (1 μM) or vehicle (DMSO 0.2%) 60 minutes before insulin or VEGF stimulation.
(§4) BAEC were stimulated with insulin (100 nM, 5 minutes) or VEGF (1 nM, 5 minutes) after pretreatment with wortmannin (100 nM, 30 minutes before insulin or VEGF stimulation) or vehicle (DMSO 0.2% (v/v)). In some experiments (FIG. 2C), BAEC were incubated with wortmannin (60 minutes before VEGF stimulation) or DMSO, then with PMA (30 minutes before VEGF stimulation) or DMSO.

[2] = tested on: Akt Ser473 phosphorylation; assay: Western blot of Akt phosphorylation in BAEC; format: cell-based, bovine; settings: for decrease in Akt Ser473 phosphorylation: PMA 100 nM, 30 minutes; for Akt Ser473 phosphorylation increased after stimulation: BAEC, insulin 100 nM or VEGF 1 nM
Procedure: as §1, §2, §3
BAEC were stimulated with insulin (100 nM, 5 minutes) or VEGF (1 nM, 5 minutes) after pretreatment with PMA (100 nM, 30 minutes) or vehicle as a control (DMSO, 0.2% (v/v)). Akt and eNOS phosphorylation in the BAEC was examined. […]
as §4

PKCα = PKCα (Bos taurus, UniProt P04409); assay: Membrane translocation of PKC isoforms (cell fractionation, immunoblot) in BAEC; format: cell-based, bovine; settings: for translocation of PKCα from cytosol to membrane fractions: VEGF 1 nM, 3, 10 or 30 minutes, PMA 100 nM, 10 minutes
PKCε = settings: for translocation of PKCε from cytosol to membrane fractions: VEGF 1 nM, 3, 10 or 30 minutes, PMA 100 nM, 10 minutes
Procedure: (§5) For each condition, three 15 cm plates (each 151 cm^2) were used. After stimulation, the plates were washed twice in ice-cold PBS and once in a hypertonic lysis buffer (Buffer A) containing Tris (pH 7.5, 20 mM), sucrose (300 mM), EDTA (2 mM), EGTA (0.5 mM), DTT (1 mM), leupeptin (10 μg/ml), and PMSF (1 mM). Each set of 3 plates were then scraped in a combined volume of 3 ml of hypertonic buffer, homogenized in a glass Dounce homogenizer, and centrifuged at 1,000×g for 10 minutes. The supernatant was ultracentrifuged at 100,000×g for 30 minutes, and the ensuing supernatant was taken aside and used as the cytosolic fraction. The pellet was washed once in Buffer B (Buffer A without sucrose), then homogenized in 2.7 ml Buffer B in a glass Dounce homogenizer, and finally lysed by adding 0.3 ml Triton X-100 to a final concentration of 1% (v/v) and rotated for 30 minutes. After ultracentrifugation at 100,000×g for 30 minutes, the supernatant was taken aside and used as the membrane fraction. By using similar volumes for the initial lysis and for the membrane pellet, protein abundance in the cytosol and membrane fraction approximately represent their relative expression in the intact cell. Protein concentration was measured in both fractions with the bicinchoninic acid (BCA) assay, and samples were normalized for protein concentration and assayed by electrophoresis and Western blotting as described below.
(§6) BAEC were stimulated with VEGF (1 nM; 3, 10, or 30 minutes) or PMA (100 nM, 10 minutes).

PKCδ = settings: for translocation of PKCδ from cytosol to membrane fractions: VEGF 1 nM, 3, 10 or 30 minutes, PMA 100 nM, 10 minutes
Procedure: as §5, §6

VEGFR2 = VEGFR2 protein expression (immunoprecipitation and immunoblot) in BAEC; format: cell-based, bovine; settings: cells transfected with control siRNA; VEGF 1 nM, 5 minutes
Procedure: For VEGFR2 and VEGFR1 immunoprecipitation, approximately 1 mg of protein was immunoprecipitated with 20 μg polyclonal antibody (Santa Cruz Biotechnology, Santa Cruz, Calif.) and washed 3 times with lysis buffer. Whole cell lysate or immunoprecipitates were reduced by addition of modified Laemmli buffer (Invitrogen) and heating to 70° C. for 10 minutes. Samples were then separated on precast minigels (NuPAGE tris-acetate gels, Invitrogen) and electrotransferred to a nitrocellulose membrane. […]
as §3, with “The intensity of phospho-specific immunoblot was normalized to the intensity of the unstimulated condition and of the nonphospho-specific protein.” left out

BAEC = assay: DNA synthesis by BrdU incorporation in BAEC; format: cell-based, bovine; settings: control siRNA condition; VEGF 1 nM
Procedure: For measurement of DNA synthesis, cells were trypsin-treated 2 days after transfection with siRNA, and 10,000 cells were added to each well (0.32 cm^2) of 96-well plates in serum-free DMEM with 0.1% BSA, with or without VEGF 1 nM. After 16 hours, cells were labeled with 5-bromo-2′-deoxyuridine (BrdU) according to the manufacturer's instructions (Roche Applied Science, Penzberg, Germany). In short, the medium was replaced with medium containing 10 μM BrdU. After an additional 8 hours, cells were fixed and incubated with anti-BrdU antibody conjugated with peroxidase. After washing, a solution of tetramethyl-benzidine was added, and the color reaction quantitated by measuring the difference between the optical density at 370 and 492 nm.

Erk1/2 phosphorylation = assay: Western blot of Erk1/2 phosphorylation in BAEC; format: cell-based, bovine; settings: control siRNA; VEGF 1 nM, 5 minutes
Procedure: as §2, §3

eNOS, Akt, Erk, or p38 = assay: Phosphorylation of eNOS, Akt, Erk, p38 after placental growth factor in BAEC; format: cell-based, bovine; settings: data not shown
Procedure: Next, VEGFR1 and VEGFR2 expression was examined. BAEC were transfected with siRNA, including the PKCε siRNA used in the previous experiments (abbreviated “ε1” here) and a second PKCε (“ε2”), grown, and serum-starved. VEGFR2 (a) or VEGFR1 (b) mRNA was measured in cell lysate by real-time PCR VEGF signal transduction during PKC knockdown could change because VEGFR2 expression results in a secondary change in VEGFR1/Fms-like tyrosine kinase-1 (Flt-1) expression. Indeed, PKCα and PKCδ knockdown increased VEGFR1 mRNA expression to 240±20 and 178±1% of the control siRNA condition, respectively (FIG. 12b, p<0.01). […] VEGFR1 protein or VEGFR1-mediated signal transduction was not detected by Western blotting in these cells. […] Thus, VEGFR1 protein is likely expressed at a very low level compared to VEGFR2 in BAEC. Changes seen in VEGF signal transduction during PKCα and δ knockdown could be influenced by upregulation of VEGFR1, but there is no indication that changes in VEGF signaling during PKCε knockdown can be attributed to changes in VEGFR1 mRNA expression.

[3] = GFX 1 μM, 30 minutes pre-incubation, with or without insulin or VEGF
[4] = control siRNA condition, VEGF 1 nM, 5 minutes

CN(C)CCCn1cc(C2=C(c3c[nH]c4ccccc34)C(=O)NC2=O)c2ccccc21 [GFX, GF109203X] was tested, and the “effect on the actions of PMA on eNOS phosphorylation” value [1, 3] was “completely prevented” and the “effect on the actions of PMA on Akt phosphorylation” value [2, 3] was “completely prevented”.

With CCCCCCCCCCCCCC(=O)O[C@@H]1[C@@H](C)[C@@]2(O)[C@@H](C=C(CO)C[C@]3(O)C(=O)C(C)=C[C@@H]23)[C@@H]2C(C)(C)[C@]12OC(C)=O [PMA, phorbol-12-myristate-13-acetate] the “translocation of PKCα from cytosol to membrane fractions” value (PKCα) was “stimulated translocation”, the “eNOS Ser1179 phosphorylation increase when VEGF was preceded by PMA” value ([1]; PMA 100 nM, 30 minutes, VEGF 1 nM, 5 minutes) was 2.7±0.4 fold and the “eNOS Ser1179 phosphorylation increase when insulin was preceded by PMA” value ([1]; PMA 100 nM, 30 minutes, insulin 100 nM, 5 minutes) was 1.2±0.2 fold. The “increase in VEGF-stimulated eNOS Ser1179 phosphorylation” value ([1]; PMA in the presence of wortmannin) was 50±9%, the “translocation of PKCε from cytosol to membrane fractions” value (PKCε) was “stimulated translocation” and the “translocation of PKCδ from cytosol to membrane fractions” value (PKCδ) was “stimulated translocation”. For the same molecule, the “decrease in Akt Ser473 phosphorylation” value ([2]; after VEGF stimulation (1 nM, 5 minutes)) was 79±4%, the “decrease in Akt Ser473 phosphorylation” value ([2]; after insulin stimulation (100 nM, 5 minutes)) was 81±4% and the “decrease in Akt Ser473 phosphorylation” value ([2]; basal state) was 59±12%.

With COC[C@H]1OC(=O)c2coc3c2[C@@]1(C)C1=C(C3=O)[C@@H]2CCC(=O)[C@@]2(C)C[C@H]1OC(C)=O [wortmannin] the inhibition at 0.1 µM ([1]; Bos taurus, BAEC, wortmannin 100 nM, 30 minutes, VEGF 1 nM, 5 minutes, read-out: inhibition of VEGF-stimulated eNOS phosphorylation) was 30 ± 9% and the “eNOS phosphorylation, % of basal” value ([1]; wortmannin 100 nM, 30 minutes, unstimulated) was 63±1 % of basal.

With VEGF the “translocation of PKCα from cytosol to membrane fractions” value (PKCα) was “stimulated translocation”, the “maximal decrease in cytosol expression of PKCα” value (PKCα; VEGF 1 nM, at 3 minutes) was 18±10% and the “maximal increase in membrane expression of PKCα” value (PKCα; VEGF 1 nM, at 3 minutes) was 72±57%. The “eNOS Ser1179 phosphorylation increased during stimulation” value ([1]; BAEC, 5 minutes) was 2.6±0.5 fold, the “VEGF-stimulated eNOS phosphorylation, fold increase” value [1, 4] was 5.2±0.5 fold and the “VEGF-stimulated decrease in VEGFR2 protein” value (VEGFR2) was 12±3%. The “VEGF-increased BrdU incorporation” value (BAEC) was 34%, the “translocation of PKCε from cytosol to membrane fractions” value (PKCε) was “stimulated translocation” and the “maximal decrease in cytosol expression of PKCε” value (PKCε; VEGF 1 nM, at 3 minutes) was 57±21%. The “maximal increase in membrane expression of PKCε” value (PKCε; VEGF 1 nM, at 3 minutes) was 31±5%, the “VEGF-increased phosphorylation of Erk1/2” value (Erk1/2 phosphorylation) was 10±1.8 fold and the “translocation of PKCδ from cytosol to membrane fractions” value (PKCδ) was “stimulated translocation”. The “maximal decrease in cytosol expression of PKCδ” value (PKCδ; VEGF 1 nM, at 3 minutes) was 29±25%, the “maximal increase in membrane expression of PKCδ” value (PKCδ; VEGF 1 nM, at 10 minutes) was 39±10% and the “Akt Ser473 phosphorylation increased after stimulation” value ([2]; 5 minutes) was 2.9±0.8 fold. For the same molecule, the “VEGF-stimulated Akt phosphorylation, fold increase” value [2, 4] was 1.7±0.1 fold.

With insulin: bovine insulin (Sigma) the “eNOS Ser1179 phosphorylation increased during stimulation” value ([1]; BAEC, 5 minutes) was 1.8±0.2 fold and the “Akt Ser473 phosphorylation increased after stimulation” value ([2]; 5 minutes) was 3.7±0.7 fold.

B1: placental growth factor: placental growth factor, which activates VEGFR1 but not VEGFR2 (protein, UniProt P49763 19-221, looked up)
Placenta growth factor: LPAVPPQQWALSAGNGSSEVEVVPFQEVWGRSYCRALERLVDVVSEYPSEVEHMFSPSCVSLLRCTGCCGDENLHCVPVETANVTMQLLKIRSGDRPSYVELTFSQHVRCECRHSPGRQSPDMPGDFRADAPSFLPPRRSLPMLFRMEWGCALTGSQSAVWPSSPVPEEIPRMHPGRNGKKQQRKPLREKMKPERCGDAVPRR
With B1 the “phosphorylation of eNOS, Akt, Erk, or p38” value (eNOS, Akt, Erk, or p38) was “did not increase”.
